Reference: ChEMBL document CHEMBL1152073, “Synthesis of novel fluorescently labeled sphingomyelin derivatives useful for sphingomyelinase assay” (Bioorg Med Chem Lett, 1997)

target: T1, Sphingomyelin phosphodiesterase (Homo sapiens) (UniProt P17405); assay: Compound was evaluated as a substrate for human placental acidic sphingomyelinase utilizing the usual substrate C14-labeled sphingomyelin.
T1 sequence (whole entry): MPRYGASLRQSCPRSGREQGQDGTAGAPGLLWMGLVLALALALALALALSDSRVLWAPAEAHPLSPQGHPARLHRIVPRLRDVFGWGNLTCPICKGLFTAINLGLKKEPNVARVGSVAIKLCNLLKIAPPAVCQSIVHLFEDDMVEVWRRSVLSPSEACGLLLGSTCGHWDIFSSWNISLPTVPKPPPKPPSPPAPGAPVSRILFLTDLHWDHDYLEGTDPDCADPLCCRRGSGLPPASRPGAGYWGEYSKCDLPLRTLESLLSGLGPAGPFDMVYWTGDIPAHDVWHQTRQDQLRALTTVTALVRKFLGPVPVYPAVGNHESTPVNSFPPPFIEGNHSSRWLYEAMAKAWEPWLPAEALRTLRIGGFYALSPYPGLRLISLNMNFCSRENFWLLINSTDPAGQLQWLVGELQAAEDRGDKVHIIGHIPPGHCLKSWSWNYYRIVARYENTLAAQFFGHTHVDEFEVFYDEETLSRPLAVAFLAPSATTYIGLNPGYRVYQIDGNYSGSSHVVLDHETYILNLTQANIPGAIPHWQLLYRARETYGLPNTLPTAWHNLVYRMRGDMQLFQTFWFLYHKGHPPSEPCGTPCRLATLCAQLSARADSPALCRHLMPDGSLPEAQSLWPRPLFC

First: CCCCCCCCCCCCC/C=C/[C@@H](O)[C@H](COP(=O)(O)OCCCCNS(=O)(=O)c1cccc2c(N(C)C)cccc12)NC(=O)CCCCCNC(=O)CCCC[C@@H]1SC[C@@H]2NC(=O)N[C@@H]21
Second: CCCCCCCCCCCCC/C=C/[C@@H](O)[C@H](COP(=O)(O)OCCCCCCNc1ccc([N+](=O)[O-])c2nonc12)NC(=O)CCCCCNC(=O)CCCC[C@@H]1SC[C@@H]2NC(=O)N[C@@H]21
The Cleavage rate of the first is higher: 0.51 nM U-1 hr-1 for the first, 0.29 nM U-1 hr-1 for the second.

Compared with CCCCCCCCCCCCC/C=C/[C@@H](O)[C@H](COP(=O)(O)OCC[N+](C)(C)CCNS(=O)(=O)c1cccc2c(N(C)C)cccc12)NC(=O)CCCCCCCCCCCCCCCCCCC, CCCCCCCCCCCCC/C=C/[C@@H](O)[C@H](COP(=O)([O-])OCC[N+](C)(C)C)NC(=O)CCCCCCCCCCCCCCCCCCC is higher in Cleavage rate: 1.32 nM U-1 hr-1 for the first, 1.72 nM U-1 hr-1 for the second.
